Experiment: refractive index (Na D-line) (dimensionless); xn = mol fraction of the nth substance listed
Conditions: 101 kPa, Liquid, Standard Abbe refractometry

OCCCO [propan-1,3-diol] + c1ccncc1
refractive index
Conditions | x2 = 0 | x2 = 0.0999 | x2 = 0.2 | x2 = 0.3 | x2 = 0.4001 | x2 = 0.5 | x2 = 0.5999 | x2 = 0.7 | x2 = 0.7998 | x2 = 0.8998
288.15 K | 1.44089 | 1.44922 | 1.45763 | 1.46592 | 1.47372 | 1.4809 | 1.48773 | 1.49409 | 1.49986 | 1.50582
293.15 K | 1.43947 | 1.44774 | 1.45599 | 1.46414 | 1.47185 | 1.47889 | 1.48556 | 1.4918 | 1.49743 | 1.50319
298.15 K | 1.43805 | 1.44619 | 1.45436 | 1.46235 | 1.46995 | 1.47685 | 1.4834 | 1.4895 | 1.495 | 1.50057
303.15 K | 1.43665 | 1.44473 | 1.45279 | 1.46061 | 1.46805 | 1.47482 | 1.48124 | 1.4872 | 1.49257 | 1.49795
308.15 K | 1.43526 | 1.44328 | 1.45118 | 1.45892 | 1.46621 | 1.4728 | 1.47907 | 1.48491 | 1.49016 | 1.49536
313.15 K | 1.43387 | 1.44171 | 1.44953 | 1.45718 | 1.46432 | 1.47092 | 1.47707 | 1.48267 | 1.48778 | 1.49276
318.15 K | 1.43244 | 1.4402 | 1.44788 | 1.45542 | 1.4624 | 1.4689 | 1.47491 | 1.48045 | 1.4855 | 1.49023
323.15 K | 1.43099 | 1.43869 | 1.44628 | 1.45378 | 1.46051 | 1.467 | 1.47312 | 1.47837 | 1.4833 | 1.48788

c1ccncc1 [pyridine] + OCC(O)CO
refractive index
Conditions | x1 = 0.1 | x1 = 0.2001 | x1 = 0.3001 | x1 = 0.4 | x1 = 0.4998 | x1 = 0.6001 | x1 = 0.6999 | x1 = 0.8001 | x1 = 0.8999 | x1 = 1
288.15 K | 1.48103 | 1.48616 | 1.49108 | 1.49581 | 1.49973 | 1.50321 | 1.50634 | 1.50874 | 1.51057 | 1.51184
293.15 K | 1.47967 | 1.48469 | 1.48946 | 1.49406 | 1.49786 | 1.50115 | 1.50412 | 1.50638 | 1.50796 | 1.509
298.15 K | 1.47829 | 1.48318 | 1.48784 | 1.49227 | 1.49597 | 1.49954 | 1.50189 | 1.504 | 1.50535 | 1.50616
303.15 K | 1.4769 | 1.48167 | 1.48619 | 1.49055 | 1.49411 | 1.49711 | 1.49967 | 1.50162 | 1.50275 | 1.50331
308.15 K | 1.47553 | 1.48015 | 1.48454 | 1.48882 | 1.49222 | 1.49515 | 1.49743 | 1.49927 | 1.50017 | 1.50048
313.15 K | 1.47412 | 1.47863 | 1.48286 | 1.48703 | 1.49024 | 1.49307 | 1.49542 | 1.49699 | 1.49777 | 1.49769
318.15 K | 1.47272 | 1.47699 | 1.4812 | 1.48522 | 1.48844 | 1.49119 | 1.49319 | 1.4947 | 1.49512 | 1.49493
323.15 K | 1.47138 | 1.47548 | 1.47953 | 1.48348 | 1.48658 | 1.48919 | 1.49101 | 1.4924 | 1.4926 | 1.49219
